This is an account of results in publication PMC10026756.

In one series the test system is WI38 normal cell line. Briefly: MTT assay, in vitro toxicity against normal cells. In kind it is cell-based. Conditions: HCT-116 versus WI38. The method, then: (§1) To scrutinise the safety of target compounds on normal cells, compounds 4b and 4e were selected to evaluate their cytotoxic activity against WI38 normal cell line (Table 2).
(§2) To scrutinise the cytotoxicity of the target compounds on colorectal cancer and normal cells, MTT assay was carried out against HCT-116 and WI38 cell lines, respectively.
In general terms: Tetrazolium dyes change colour on reduction, which living cells bring about.

Series [1] is described as follows: MTT assay, in vitro toxicity against normal cells. In kind it is cell-based. The settings on record: human, WI38 normal cells; MTT assay, WI38; read-out: IC50, in vitro cytotoxicity against WI38 normal cell line. The procedure: as §1, §2
For series [2], the system named is HCT-116 colon cancer cell line. Briefly: MTT assay, in vitro cytotoxicity against HCT-116. In kind it is cell-based. The settings on record: read-out: IC50, in vitro cytotoxicity against HCT116 cell line. The procedure:
The target compounds were evaluated for their anticancer activity against HCT-116 colon cancer cell line in which both c-Met and VEGFR-2 are overexpressed.[54]^,[55] […] The half maximal inhibitory concentration (IC50) was calculated for each compound (Table 1).
as §2

In the next series the target is c-Met (Homo sapiens, UniProt P08581). Briefly: In vitro c-Met tyrosine kinase inhibition assay.
A further series deals with HCT-116 cells. Briefly: Apoptosis assay, Annexin V-FITC/PI staining. The settings on record: HCT-116, treated at IC50 concentration, 24 h. In kind it is cell-based. The method, then: Compared to the control group, the number of both early and late apoptotic cells of target compounds 4b and 4e was increased.
(§3) The effects of both 4b and 4e on progress of cell cycle and induction of apoptosis in […] cells were carried out using Annexin V-FITC Apoptosis Detection Kit (BioVision Research Products, Mountain View, CA) (see Supplementary Data)[8].

The test system of series [3] is HCT-116 colon cancer cell line. Briefly: Cell cycle analysis. It counts as cell-based. The settings on record: HCT-116, treated at IC50 concentration, 24 h. The method, then: Aiming to further study the mechanism of the target compounds, the cell cycle arrest experiment of 4b and 4e blocking the cell cycle of HCT-116 was carried out using Annexin V-FITC/PI staining (Table 4 and Figure 8).[56]
as §3

A further series has as its target VEGFR-2 (Homo sapiens, UniProt P35968). In words: In vitro VEGFR-2 tyrosine kinase inhibition assay (BPS KDR Assay Kit).

SMILES strings stand for the structures. Where two headings read alike, the source gives them in different places.

Chain of VEGFR-2 (P35968 20-1356): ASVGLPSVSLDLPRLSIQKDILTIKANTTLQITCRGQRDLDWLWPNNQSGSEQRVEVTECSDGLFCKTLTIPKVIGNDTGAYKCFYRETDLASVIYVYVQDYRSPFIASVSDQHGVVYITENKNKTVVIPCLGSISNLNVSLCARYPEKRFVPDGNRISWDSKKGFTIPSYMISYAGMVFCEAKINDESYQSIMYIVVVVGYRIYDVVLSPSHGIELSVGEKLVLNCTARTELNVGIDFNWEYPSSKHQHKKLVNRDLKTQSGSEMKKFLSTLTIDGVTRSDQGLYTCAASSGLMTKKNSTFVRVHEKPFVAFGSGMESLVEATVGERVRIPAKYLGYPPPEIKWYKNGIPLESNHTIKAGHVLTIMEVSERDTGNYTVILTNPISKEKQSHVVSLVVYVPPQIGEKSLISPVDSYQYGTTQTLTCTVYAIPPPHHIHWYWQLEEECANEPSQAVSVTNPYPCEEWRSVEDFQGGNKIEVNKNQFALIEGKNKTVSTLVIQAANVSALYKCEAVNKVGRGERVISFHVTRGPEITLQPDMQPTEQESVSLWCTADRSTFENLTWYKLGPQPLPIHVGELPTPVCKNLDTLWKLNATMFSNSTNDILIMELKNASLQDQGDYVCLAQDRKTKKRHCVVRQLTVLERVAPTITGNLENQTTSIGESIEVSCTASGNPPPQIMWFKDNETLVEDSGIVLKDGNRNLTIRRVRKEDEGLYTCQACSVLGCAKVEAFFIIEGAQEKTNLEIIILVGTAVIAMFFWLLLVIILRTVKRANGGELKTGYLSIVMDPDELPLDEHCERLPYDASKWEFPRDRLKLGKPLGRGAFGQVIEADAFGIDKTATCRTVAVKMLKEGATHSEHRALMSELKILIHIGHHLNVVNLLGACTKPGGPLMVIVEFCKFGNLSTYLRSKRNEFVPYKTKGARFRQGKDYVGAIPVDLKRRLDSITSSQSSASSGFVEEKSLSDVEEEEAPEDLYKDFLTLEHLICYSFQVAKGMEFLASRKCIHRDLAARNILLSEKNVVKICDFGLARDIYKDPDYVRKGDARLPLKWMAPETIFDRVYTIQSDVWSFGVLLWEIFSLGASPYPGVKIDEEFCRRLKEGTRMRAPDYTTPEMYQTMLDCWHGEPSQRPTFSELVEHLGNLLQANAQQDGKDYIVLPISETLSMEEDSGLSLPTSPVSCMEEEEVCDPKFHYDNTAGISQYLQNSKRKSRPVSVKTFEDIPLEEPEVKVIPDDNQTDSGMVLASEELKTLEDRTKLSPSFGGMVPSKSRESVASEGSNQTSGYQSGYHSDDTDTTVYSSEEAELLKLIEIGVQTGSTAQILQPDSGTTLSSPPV
Chain of c-Met (P08581 25-1390): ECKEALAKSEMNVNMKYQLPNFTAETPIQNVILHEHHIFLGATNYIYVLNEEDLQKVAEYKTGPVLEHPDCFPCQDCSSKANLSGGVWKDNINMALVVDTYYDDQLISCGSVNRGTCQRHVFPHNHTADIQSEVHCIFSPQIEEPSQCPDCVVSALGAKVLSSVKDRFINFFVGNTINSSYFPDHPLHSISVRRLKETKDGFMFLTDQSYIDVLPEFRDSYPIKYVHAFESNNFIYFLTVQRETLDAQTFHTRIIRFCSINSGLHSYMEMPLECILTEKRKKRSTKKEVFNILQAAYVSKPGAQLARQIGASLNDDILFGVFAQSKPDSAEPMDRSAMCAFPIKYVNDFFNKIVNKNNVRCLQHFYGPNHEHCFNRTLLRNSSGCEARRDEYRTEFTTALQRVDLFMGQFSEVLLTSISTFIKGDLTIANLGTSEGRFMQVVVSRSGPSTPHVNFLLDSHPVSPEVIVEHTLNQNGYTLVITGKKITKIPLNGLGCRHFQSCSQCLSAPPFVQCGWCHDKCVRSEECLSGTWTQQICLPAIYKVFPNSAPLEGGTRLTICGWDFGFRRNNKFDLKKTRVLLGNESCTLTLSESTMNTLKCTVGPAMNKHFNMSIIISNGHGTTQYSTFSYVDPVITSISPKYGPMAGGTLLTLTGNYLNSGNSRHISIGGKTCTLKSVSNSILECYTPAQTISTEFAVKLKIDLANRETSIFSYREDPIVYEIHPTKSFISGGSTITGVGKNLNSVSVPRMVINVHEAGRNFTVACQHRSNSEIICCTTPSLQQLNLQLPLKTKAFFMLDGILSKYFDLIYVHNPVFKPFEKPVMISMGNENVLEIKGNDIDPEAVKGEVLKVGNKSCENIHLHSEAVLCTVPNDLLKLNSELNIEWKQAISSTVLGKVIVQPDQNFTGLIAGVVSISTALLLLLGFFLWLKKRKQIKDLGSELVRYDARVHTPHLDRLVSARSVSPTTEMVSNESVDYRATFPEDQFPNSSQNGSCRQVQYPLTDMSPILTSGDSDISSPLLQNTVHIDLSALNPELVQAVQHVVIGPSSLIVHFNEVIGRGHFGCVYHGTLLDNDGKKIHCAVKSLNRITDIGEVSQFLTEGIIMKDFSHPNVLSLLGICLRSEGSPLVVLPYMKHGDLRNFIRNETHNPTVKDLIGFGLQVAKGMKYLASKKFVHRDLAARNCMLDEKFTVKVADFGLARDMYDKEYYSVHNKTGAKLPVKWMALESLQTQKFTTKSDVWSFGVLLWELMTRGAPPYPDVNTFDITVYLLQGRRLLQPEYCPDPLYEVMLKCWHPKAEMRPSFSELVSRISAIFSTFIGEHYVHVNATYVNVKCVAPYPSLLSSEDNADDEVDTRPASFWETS

In general, IC50 refers to the concentration needed to halve the response being measured. With `O=C(Cn1c(=O)[nH]c2ccccc2c1=O)NCC(=O)N/N=C/c1ccc([N+](=O)[O-])cc1` [Compound 4b, (E)-2-(2,4-Dioxo-1,4-dihydroquinazolin-3(2H)-yl)-N-[2-(2-[4-nitrobenz-ylidene]hydrazineyl)-2-oxoethyl]acetamide], in the series with WI38 normal cell line, the “cytotoxic activity against HCT-116 colon cancer cells, times more than WI38 normal cells” value stood at 25 times. In addition, the IC50 was 18.4 ± 1.09 µM in series [1]; less than 1 µM in series [2] (Homo sapiens, HCT-116, MTT assay); 0.734 ± 0.04 µM in series [2] (MTT assay); 0.063 ± 0.003 µM at c-Met; 0.035 ± 0.002 µM at VEGFR-2. The c-Met %inh came to 27.49% at c-Met (conc 0.01 (unit not given)), 58.65% on c-Met (conc 0.1 (unit not given)), 82.51% at c-Met (conc 1 (unit not given)) and 93.15% at c-Met (conc 10 (unit not given)). The “%Necrosis” value in the series with HCT-116 cells is recorded as 4.53%. The “Apoptosis %Early” value in the series with HCT-116 cells worked out at 15.28%. The “Apoptosis %Late” value in the series with HCT-116 cells is 26.41%. In the series with HCT-116 cells, the “Apoptosis %Total” value is 41.69%. For the same molecule, the “%G0–G1” value in series [3] is 39.59%. Further, the “%G2/M” value in series [3] came to 9.34%. Moreover, in series [3], the “%S” value was found to be 51.07%. For the same molecule, the VEGFR-2 %inh is 38.24% on VEGFR-2 (conc 0.01 (unit not given)), 60.12% at VEGFR-2 (conc 0.1 (unit not given)), 78.48% at VEGFR-2 (conc 1 (unit not given)) and 90.09% at VEGFR-2 (conc 10 (unit not given)).
